From patent publication US20180339963A1, “ANTICONVULSANT CARBAMATE DERIVATIVES” (Yissum Research Development Company of the Hebrew …, priority 2017, published 2018)
Read-outs that look alike come from different tables or passages of the source.

How the values were obtained:
hCA I = biological target: T1, hCA I (Homo sapiens, UniProt P00915); test: Stopped flow CO2 hydrase assay, hCA I; assay type: biochemical; details: mean from 3 assays, read-out: K1, hCAI
T1 construct: made in house
Procedure: (§1) An Applied Photophysics stopped-flow instrument has been used for assaying the CA catalysed CO2 hydration activity. Phenol red (at a concentration of 0.2 mM) has been used as indicator, working at the absorbance maximum of 557 nm, with 20 mM Hepes (pH 7.5) as buffer, and 20 mM Na2SO4 (for maintaining constant the ionic strength), following the initial rates of the CA-catalyzed CO2 hydration reaction for a period of 10-100 s. The CO2 concentrations ranged from 1.7 to 17 mM for the determination of the kinetic parameters and inhibition constants. […] The uncatalyzed rates were determined in the same manner and subtracted from the total observed rates. Stock solutions of inhibitor (0.1 mM) were prepared in distilled-deionized water and dilutions up to 0.01 nM were done thereafter with the assay buffer. […] The inhibition constants were obtained by non-linear least-squares methods using PRISM 3 and the Cheng-Prusoff equation, as reported earlier and represent the mean from at least three different determinations. All CA isofoms were recombinant ones obtained in-house.

hCA II = biological target: T2, hCA II (Homo sapiens, UniProt P00918); test: Stopped flow CO2 hydrase assay, hCA II; assay type: biochemical; details: mean from 3 assays, read-out: K1, hCA II
T2 construct: made in house
Procedure: as §1

hCA IV = biological target: T3, hCA IV (Homo sapiens, UniProt P22748); test: Stopped flow CO2 hydrase assay, hCA IV; assay type: biochemical; details: mean from 3 assays; for Ki: read-out: K1, hCA IV
T3 construct: made in house
T3 sequence (P22748 19-284): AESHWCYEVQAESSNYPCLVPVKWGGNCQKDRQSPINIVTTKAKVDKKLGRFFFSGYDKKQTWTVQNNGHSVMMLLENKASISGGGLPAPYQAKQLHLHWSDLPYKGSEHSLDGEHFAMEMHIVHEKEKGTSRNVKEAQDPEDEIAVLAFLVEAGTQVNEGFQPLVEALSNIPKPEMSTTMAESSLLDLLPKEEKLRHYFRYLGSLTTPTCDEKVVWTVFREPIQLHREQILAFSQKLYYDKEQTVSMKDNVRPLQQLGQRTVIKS
Procedure: as §1

hCA VII = biological target: T4, hCA VII (Homo sapiens, UniProt P43166); test: Stopped flow CO2 hydrase assay, hCA VII; assay type: biochemical; details: mean from 3 assays, read-out: K1, hCA VII
T4 construct: made in house
T4 sequence (P43166 whole entry): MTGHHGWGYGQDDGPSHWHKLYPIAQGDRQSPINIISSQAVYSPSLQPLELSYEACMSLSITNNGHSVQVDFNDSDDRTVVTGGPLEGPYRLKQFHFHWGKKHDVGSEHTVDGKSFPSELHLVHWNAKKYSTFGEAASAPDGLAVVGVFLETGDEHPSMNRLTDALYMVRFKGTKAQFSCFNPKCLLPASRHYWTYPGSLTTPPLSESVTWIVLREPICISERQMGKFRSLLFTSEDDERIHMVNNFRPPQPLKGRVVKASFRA
Procedure: as §1

6 Hz psychomotor seizure = 6 Hz psychomotor seizure test in mice; details: Mus musculus, ip, read-out: 6 Hz, number of mice protected/number of mice tested
[1] = tested on: maximal electroshock seizure (MES); test: Maximal electroshock seizure (MES) test in mice; details: Mus musculus, ip, read-out: MES, number of mice protected/number of mice tested
mice = test: Neurotoxicity (minimal motor impairment, rotarod) in mice; details: mice i.p.

T1 sequence (P00915 whole entry): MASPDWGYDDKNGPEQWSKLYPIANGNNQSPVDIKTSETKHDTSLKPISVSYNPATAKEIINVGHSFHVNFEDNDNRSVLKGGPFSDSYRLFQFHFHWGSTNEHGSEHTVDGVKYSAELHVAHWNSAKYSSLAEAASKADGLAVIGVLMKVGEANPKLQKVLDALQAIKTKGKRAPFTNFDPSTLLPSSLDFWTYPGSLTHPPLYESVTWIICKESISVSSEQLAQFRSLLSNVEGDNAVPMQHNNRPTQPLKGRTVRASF

Q: Which Ki (hCA I) does the source give for `CC(C)(C)CCOC(=O)Nc1ccc(S(N)(=O)=O)cc1` [Compound 4, 3,3-dimethylbutyl (4-sulfamoylphenyl)carbamate] here?
A: Its Ki is 59.5 nM.

Q: What about the Ki (hCA II) of the same compound?
A: The Ki was 4.5 nM.

Q: And the Ki (hCA IV)?
A: Its Ki is 1840 nM.

Q: What about the Ki (hCA VII) of the same compound?
A: The Ki was 44.4 nM.

Q: And the melting point?
A: The melting point was 170 to 173 °C.

Q: What about the responders at 30 mg/kg (6 Hz psychomotor seizure; 0.5 h) of the same compound?
A: Its responders at 30 mg/kg is 0%.

Q: What about the responders at 100 mg/kg (6 Hz psychomotor seizure; 0.5 h) of the same compound?
A: The responders at 100 mg/kg was 0%.

Q: What about the responders at 300 mg/kg (6 Hz psychomotor seizure; 0.5 h) of the same compound?
A: The responders at 300 mg/kg was 0%.

Q: And the responders at 30 mg/kg (6 Hz psychomotor seizure; 2 h)?
A: The responders at 30 mg/kg was 0%.

Q: What about the responders at 100 mg/kg (6 Hz psychomotor seizure; 2 h) of the same compound?
A: Its responders at 100 mg/kg is 0%.

Q: And the responders at 300 mg/kg (6 Hz psychomotor seizure; 2 h)?
A: The responders at 300 mg/kg was 0%.

Q: And the responders at 30 mg/kg ([1]; 0.5 h)?
A: The responders at 30 mg/kg was 0%.

Q: What about the responders at 100 mg/kg ([1]; 0.5 h) of the same compound?
A: Its responders at 100 mg/kg is 0%.

Q: And the responders at 300 mg/kg ([1]; 0.5 h)?
A: The responders at 300 mg/kg was 25%.

Q: And the responders at 30 mg/kg ([1]; 2 h)?
A: Its responders at 30 mg/kg is 0%.

Q: And the responders at 100 mg/kg ([1]; 2 h)?
A: The responders at 100 mg/kg was 0%.

Q: And the responders at 300 mg/kg ([1]; 2 h)?
A: The responders at 300 mg/kg was 25%.

Q: And the “Tox (motor impairment or sedation), number of animals affected/number of animals tested” value (mice; 30 mg/kg, 0.5 h)?
A: The value was 0/8.

Q: What about the “Tox (motor impairment or sedation), number of animals affected/number of animals tested” value (mice; 30 mg/kg, 2.0 h) of the same compound?
A: The value was 0/8.

Q: And the “Tox (motor impairment or sedation), number of animals affected/number of animals tested” value (mice; 100 mg/kg, 0.5 h)?
A: The value was 0/8.

Q: And the “Tox (motor impairment or sedation), number of animals affected/number of animals tested” value (mice; 100 mg/kg, 2.0 h)?
A: Its value is 0/8.

Q: What about the “Tox (motor impairment or sedation), number of animals affected/number of animals tested” value (mice; 300 mg/kg, 0.5 h) of the same compound?
A: The value was 0/8.

Q: What about the “Tox (motor impairment or sedation), number of animals affected/number of animals tested” value (mice; 300 mg/kg, 2.0 h) of the same compound?
A: The value was 0/8.

Q: Which Ki (hCA I) does the source give for `CCCCC(CC)COC(=O)Nc1ccc(S(N)(=O)=O)cc1` (stereo not drawn) [Compound 2, 2-ethylhexyl (4-sulfamoylphenyl)carbamate] here?
A: Its Ki is 421 nM.

Q: And the Ki (hCA II)?
A: The Ki was 8.7 nM.

Q: And the Ki (hCA IV)?
A: The Ki was greater than 10000 nM.

Q: And the Ki (hCA VII)?
A: Its Ki is greater than 10000 nM.

Q: What about the melting point of the same compound?
A: The melting point was 192 to 195 °C.

Q: And the responders at 30 mg/kg (6 Hz psychomotor seizure; 0.5 h)?
A: Its responders at 30 mg/kg is 0%.

Q: And the responders at 100 mg/kg (6 Hz psychomotor seizure; 0.5 h)?
A: The responders at 100 mg/kg was 75%.

Q: And the responders at 300 mg/kg (6 Hz psychomotor seizure; 0.5 h)?
A: The responders at 300 mg/kg was 50%.

Q: And the responders at 30 mg/kg (6 Hz psychomotor seizure; 2 h)?
A: Its responders at 30 mg/kg is 0%.

Q: And the responders at 100 mg/kg (6 Hz psychomotor seizure; 2 h)?
A: Its responders at 100 mg/kg is 0%.

Q: And the responders at 300 mg/kg (6 Hz psychomotor seizure; 2 h)?
A: Its responders at 300 mg/kg is 25%.

Q: And the responders at 30 mg/kg ([1]; 0.5 h)?
A: Its responders at 30 mg/kg is 0%.

Q: And the responders at 100 mg/kg ([1]; 0.5 h)?
A: The responders at 100 mg/kg was 25%.

Q: What about the responders at 300 mg/kg ([1]; 0.5 h) of the same compound?
A: The responders at 300 mg/kg was 25%.

Q: And the responders at 30 mg/kg ([1]; 2 h)?
A: Its responders at 30 mg/kg is 0%.

Q: And the responders at 100 mg/kg ([1]; 2 h)?
A: Its responders at 100 mg/kg is 0%.

Q: And the responders at 300 mg/kg ([1]; 2 h)?
A: Its responders at 300 mg/kg is 25%.

Q: And the “Tox (motor impairment or sedation), number of animals affected/number of animals tested” value (mice; 30 mg/kg, 0.5 h)?
A: The value was 0/8.

Q: And the “Tox (motor impairment or sedation), number of animals affected/number of animals tested” value (mice; 30 mg/kg, 2.0 h)?
A: The value was 0/8.

Q: What about the “Tox (motor impairment or sedation), number of animals affected/number of animals tested” value (mice; 100 mg/kg, 0.5 h) of the same compound?
A: The value was 0/8.

Q: And the “Tox (motor impairment or sedation), number of animals affected/number of animals tested” value (mice; 100 mg/kg, 2.0 h)?
A: Its value is 0/8.

Q: What about the “Tox (motor impairment or sedation), number of animals affected/number of animals tested” value (mice; 300 mg/kg, 0.5 h) of the same compound?
A: The value was 0/8.

Q: And the “Tox (motor impairment or sedation), number of animals affected/number of animals tested” value (mice; 300 mg/kg, 2.0 h)?
A: Its value is 0/8.

Q: What does the source list for `CCCC(CCC)COC(=O)Nc1ccc(S(N)(=O)=O)cc1` [Compound 3, 2-propylpentyl (4-sulfamoylphenyl)carbamate]?
A: Ki (hCA I): 485 nM; Ki (hCA II): 19.6 nM; Ki (hCA IV): > 10000 nM; Ki (hCA VII): > 10000 nM; melting point: 176 to 177 °C; responders at 30 mg/kg (6 Hz psychomotor seizure; 0.5 h): 0%; responders at 100 mg/kg (6 Hz psychomotor seizure; 0.5 h): 0%; responders at 300 mg/kg (6 Hz psychomotor seizure; 0.5 h): 25%; responders at 30 mg/kg (6 Hz psychomotor seizure; 2 h): 0%; responders at 100 mg/kg (6 Hz psychomotor seizure; 2 h): 0%; responders at 300 mg/kg (6 Hz psychomotor seizure; 2 h): 0%; responders at 30 mg/kg ([1]; 0.5 h): 0%; responders at 100 mg/kg ([1]; 0.5 h): 0%; responders at 300 mg/kg ([1]; 0.5 h): 0%; responders at 30 mg/kg ([1]; 2 h): 0%; responders at 100 mg/kg ([1]; 2 h): 0%; responders at 300 mg/kg ([1]; 2 h): 0%; Tox (motor impairment or sedation), number of animals affected/number of animals tested (mice; 30 mg/kg, 0.5 h): 0/8; Tox (motor impairment or sedation), number of animals affected/number of animals tested (mice; 30 mg/kg, 2.0 h): 0/8; Tox (motor impairment or sedation), number of animals affected/number of animals tested (mice; 100 mg/kg, 0.5 h): 0/8; Tox (motor impairment or sedation), number of animals affected/number of animals tested (mice; 100 mg/kg, 2.0 h): 0/8; Tox (motor impairment or sedation), number of animals affected/number of animals tested (mice; 300 mg/kg, 0.5 h): 0/8; Tox (motor impairment or sedation), number of animals affected/number of animals tested (mice; 300 mg/kg, 2.0 h): 0/8

Q: What does the source list for `CC(C)C(OC(=O)Nc1ccc(S(N)(=O)=O)cc1)C(C)C` [Compound 8, 2,4-dimethylpentan-3-yl (4-sulfamoylphenyl)carbamate]?
A: Ki (hCA I): 21 nM; Ki (hCA II): 3.7 nM; K1, hCA IV (hCA IV): medium potency inhibitors; Ki (hCA IV): 452 nM; Ki (hCA VII): 35.4 nM; melting point: 193 to 194 °C; responders at 30 mg/kg (6 Hz psychomotor seizure; 0.5 h): 0%; responders at 100 mg/kg (6 Hz psychomotor seizure; 0.5 h): 0%; responders at 300 mg/kg (6 Hz psychomotor seizure; 0.5 h): 50%; responders at 30 mg/kg (6 Hz psychomotor seizure; 2 h): 0%; responders at 100 mg/kg (6 Hz psychomotor seizure; 2 h): 0%; responders at 300 mg/kg (6 Hz psychomotor seizure; 2 h): 25%; responders at 30 mg/kg ([1]; 0.5 h): 0%; responders at 100 mg/kg ([1]; 0.5 h): 0%; responders at 300 mg/kg ([1]; 0.5 h): 25%; responders at 30 mg/kg ([1]; 2 h): 50%; responders at 100 mg/kg ([1]; 2 h): 100%; responders at 300 mg/kg ([1]; 2 h): 100%; Tox (motor impairment or sedation), number of animals affected/number of animals tested (mice; 30 mg/kg, 0.5 h): 0/8; Tox (motor impairment or sedation), number of animals affected/number of animals tested (mice; 30 mg/kg, 2.0 h): 0/8; Tox (motor impairment or sedation), number of animals affected/number of animals tested (mice; 100 mg/kg, 0.5 h): 0/8; Tox (motor impairment or sedation), number of animals affected/number of animals tested (mice; 100 mg/kg, 2.0 h): 0/8; Tox (motor impairment or sedation), number of animals affected/number of animals tested (mice; 300 mg/kg, 0.5 h): 1/8; Tox (motor impairment or sedation), number of animals affected/number of animals tested (mice; 300 mg/kg, 2.0 h): 0/8
